Measurements reported in article PMC5869189 (Frontiers in Immunology, 2018).
Values joined by “and” are separate entries in the source; they are usually repeats but may differ in a detail not shown here. Identical values can stand only once.

Tests used:
[1] = system: PBMC from healthy, seropositive donors; assay type: cell-based, human
HLA-DRB1*07 = assay type: binding, human; parameters: reference not given here; settings: 24–72 h at 37°C
HLA-DRB1*09 = assay type: binding, human; parameters: reference not given here; settings: 24–72 h at 37°C
HLA-DRB1*11:01 = target: T1, HLA-DRB1*11:01 (Homo sapiens, UniProt P01903+P01911, A100R/A169T/A87E/I96F/K41T/L162R/M171V/P40S/Q125H/Q178H/Q39Y/Q99D/R42S/S66Y/T262R/V115G/W38E); assay type: binding; parameters: reference not given here; settings: 24–72 h at 37°C
T1 construct: Purified HLA-DR heterodimers derived from the relevant EBV B-lymphoblastoid cell lines; endogenous in cells

HLA-DRB1*12:02 = HLA-DRB1*12:02 (Homo sapiens, UniProt P01903+P01911, A100R/A169T/D57E/D86V/F55L/H45Y/I96F/K41T/L162R/M171V/P40S/Q125H/Q178H/Q39Y/Q99D/R42G/S66L/T262R/V114A/V67L/W38E/Y59H/Y61H/Y89S); assay type: binding; parameters: reference not given here; settings: 24–72 h at 37°C
HLA-DRB1*15:01 = target: T2, HLA-DRB1*15:01 (Homo sapiens, UniProt P01903+P01911); assay type: binding; parameters: reference not given here; settings: 24–72 h at 37°C
T2 construct: Purified HLA-DR heterodimers derived from the relevant EBV B-lymphoblastoid cell lines; endogenous in cells

HLA-DRB1*15:02 = target: T3, HLA-DRB1*15:02 (Homo sapiens, UniProt P01903+P01911, V115G); assay type: binding; parameters: reference not given here; settings: 24–72 h at 37°C
T3 construct: Purified HLA-DR heterodimers derived from the relevant EBV B-lymphoblastoid cell lines; endogenous in cells

HLA-DRB1*04 = assay type: binding, human; parameters: reference not given here; settings: 24–72 h at 37°C

T1 sequence (P01903 26-254, other chains not shown): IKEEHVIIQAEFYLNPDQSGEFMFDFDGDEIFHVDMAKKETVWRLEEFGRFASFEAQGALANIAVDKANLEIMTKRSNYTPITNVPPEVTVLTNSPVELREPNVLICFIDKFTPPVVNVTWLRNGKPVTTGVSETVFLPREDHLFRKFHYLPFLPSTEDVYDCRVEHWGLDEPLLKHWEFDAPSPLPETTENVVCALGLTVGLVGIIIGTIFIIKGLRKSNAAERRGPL
T3 sequence (P01903 26-254, other chains not shown): as above

| Sequence | % Responders [1] | Median SFC/10^6 PBMCs (IFN-g) [1] | also measured |
| --- | --- | --- | --- |
| AAKIQGMNVEVVVATGYTDR [BPSL2522_P13] | 100% | 291 | Elispot, Median SFC/10^6 PBMCs of HLA donors [1]: 362 SFC/10^6 PBMCs and 488 SFC/10^6 PBMCs and 487 SFC/10^6 PBMCs and 578 SFC/10^6 PBMCs and 351 SFC/10^6 PBMCs and 534 SFC/10^6 PBMCs; HLA binding, relative HLA binding affinity (HLA-DRB1*07): 11; HLA binding, relative HLA binding affinity (HLA-DRB1*09): 42; HLA binding, relative HLA binding affinity (HLA-DRB1*11:01): 23; HLA binding, relative HLA binding affinity (HLA-DRB1*12:02): 5; HLA binding, relative HLA binding affinity (HLA-DRB1*15:01): 5; HLA binding, relative HLA binding affinity (HLA-DRB1*15:02): 667 |
| NQNPQITASVVGYTDSTGSA [BPSL0999_P14] | 95.7% and 96% | 373 | Elispot, Median SFC/10^6 PBMCs of HLA donors [1]: 583 SFC/10^6 PBMCs and 417 SFC/10^6 PBMCs and 601 SFC/10^6 PBMCs and 460 SFC/10^6 PBMCs and 567 SFC/10^6 PBMCs and 588 SFC/10^6 PBMCs and 489 SFC/10^6 PBMCs; HLA binding, relative HLA binding affinity (HLA-DRB1*04): 33; HLA binding, relative HLA binding affinity (HLA-DRB1*07): 30.2; HLA binding, relative HLA binding affinity (HLA-DRB1*09): 37; HLA binding, relative HLA binding affinity (HLA-DRB1*11:01): 189; HLA binding, relative HLA binding affinity (HLA-DRB1*12:02): >136; HLA binding, relative HLA binding affinity (HLA-DRB1*15:01): 1; HLA binding, relative HLA binding affinity (HLA-DRB1*15:02): 542 |
| PAGKQKLDELAAKIQGMNVE [BPSL2522_P12] | 97.1% and 97% | 308 | HLA binding, relative HLA binding affinity (HLA-DRB1*04): >145; HLA binding, relative HLA binding affinity (HLA-DRB1*07): 333; HLA binding, relative HLA binding affinity (HLA-DRB1*09): >689; HLA binding, relative HLA binding affinity (HLA-DRB1*11:01): 77; HLA binding, relative HLA binding affinity (HLA-DRB1*12:02): 40; HLA binding, relative HLA binding affinity (HLA-DRB1*15:01): >270; HLA binding, relative HLA binding affinity (HLA-DRB1*15:02): >3 333 |
| RGVAANRLSAQGMGASNPIA [BPSL0999_P18] | 93.6% and 94% | 375 | Elispot, Median SFC/10^6 PBMCs of HLA donors [1]: 617 SFC/10^6 PBMCs and 415 SFC/10^6 PBMCs and 456 SFC/10^6 PBMCs and 487 SFC/10^6 PBMCs and 634 SFC/10^6 PBMCs and 616 SFC/10^6 PBMCs and 441 SFC/10^6 PBMCs; HLA binding, relative HLA binding affinity (HLA-DRB1*04): 82; HLA binding, relative HLA binding affinity (HLA-DRB1*07): 11; HLA binding, relative HLA binding affinity (HLA-DRB1*09): 367; HLA binding, relative HLA binding affinity (HLA-DRB1*11:01): 72; HLA binding, relative HLA binding affinity (HLA-DRB1*12:02): 14; HLA binding, relative HLA binding affinity (HLA-DRB1*15:01): 157; HLA binding, relative HLA binding affinity (HLA-DRB1*15:02): >3 333 |
| RQTAMSNAQTLASQLVAAGQ [BPSL0280_P14] | 89.7% | 565 |  |
| RRGGRPRTERWWALRPVERR [BPSS1599_P18] | 97.9% | 172 |  |
| RVEVEVVGTQEVQKTTVPAQ [BPSL2522_P23] | 97.1% | 361 |  |
| RVRAELAARQARSGPVAPPW [BPSS1599_P24] | 87.5% | 119 |  |
| SALSATDQANATAMVAQINA [BPSL3319_P27] | 86.7% | 259 |  |
| SAQSVPASRQAVNDNWVNGT [BPSL2522_P3] | 88.6% | 267 |  |
| SDDPLPPPLETELAQAGDIA [BPSS0530_P9] | 90.7% | 283 |  |
| SLRRAQAVKSYLVSKGVPAN [BPSL2522_P16] | 82.9% | 317 |  |
| SLSRRNELRAEAVELAKKLK [BPSS1599_P3] | 89.6% | 156 |  |
| SNHGWGFTLLDLDQDGLGLG [BPSS0530_P5] | 93.0% | 224 |  |
| SQKITYQADTLFDFDKAVLK [BPSL2522_P10] | 91.4% | 297 |  |
| SQVANDNAVAAQVAGNLRT [BPSS1531_P41] | 80.0% | 197 |  |
| SVLAQEAPARQHRIDMHGMR [BPSS1531_P31] | 88.6% | 182 |  |
| TAACVVLGGAFAYWHHRAKV [BPSS1599_P21] | 100.0% | 170 |  |

| Sequence | % Responders [1] | Median SFC/10^6 PBMCs (IFN-g) [1] | also measured |
| --- | --- | --- | --- |
| TELAQAGDIACLALQAARTG [BPSS0530_P10] | 93.0% | 280 |  |
| TEQPDGSLKLNVPSSVTFAT [BPSL0999_P10] | 93.6% | 382 |  |
| TKLGAVEQIQKLVDLQLPGA [BPSS0530_P38] | 90.7% | 305 |  |
| TPEIRQDAEFGRQVYEATLC [BPSS1525_P11] | 84.6% | 184 |  |
| TPLADDSVVRTQLLARLQWL [BPSS1599_P34] | 97.9% | 147 |  |
| TQLLARLQWLDAAAKLERLL [BPSS1599_P35] | 93.8% | 145 |  |
| VDKQWNLKKLIFAFSAAMPA [BPSS0530_P35] | 90.7% | 243 |  |
| VGLQAGAQSKAIVFLFMTQD [BPSL1445_P12] | 93.9% | 321 |  |
| VGTQEVQKTTVPAQ [BPSL2522_P22] | 97.1% | 270 |  |
| VGYTDSTGSAAHNQTLSQNR [BPSL0999_P15] | 97.9% | 367 |  |
| VLPGVDEELADRELGYDHDD [BPSS0530_P29] | 93.0% | 234 |  |
| VPLTAPTANDTPLADDSVVR [BPSS1599_P33] | 83.3% | 147 |  |
| VRPAFIEALGDAARATGLPG [BPSS1525_P15] | 89.7% | 220 |  |
| WARNGSNVRYLLVVEPGATL [BPSS1599_P30] | 91.7% | 155 |  |
| WKSQLRSDEVALPIARVAGR [BPSS0530_P17] | 97.7% | 274 |  |
| WSDGMLIETQHFQQLERHLA [BPSS0530_P2] | 90.7% | 260 |  |
| WWALRPVERRLSPRAALIAA [BPSS1599_P19] | 95.8% | 169 |  |
| YLVSKGVPANKVYTEGKGKR [BPSL2522_P17] | 82.9% | 312 |  |
